{
  "source": "patent US12642801B2",
  "about": "“Pharmaceutical composition for preventing or treating rheumatoid arthritis and health functional food” (SEOUL NATIONAL UNIVERSITY R&DB FOUNDATION, priority 2021, dated 2026)",
  "key": {"[1]": {"test_system": "CD11b+ F4/80+ cells (macrophage cells)", "assay": "Macrophage cell level in spleen cells of CIA mice by flow cytometry", "assay_type": "in vivo", "settings": "for ratio of CD11b+ F4/80+ cells as a marker for macrophage cells: spleen live cells, CIA+Veh 1.854±0.41%, sham 0.355±0.08%", "description": "In order to confirm mitigation effects of increase in immune active macrophage cells in the spleen, after i.p. administration of YKL-05-099 in an amount of 10 mg/kg or 20 mg/kg to the rheumatoid arthritis model CIA mice once a day, spleen cells were isolated at a time of sacrificing the mice to investigate macrophage cell levels. FIGS. 13A and 13B illustrate the above results of investigating macrophage cell levels. Immune cell assay was performed through flow cytometry, and the experiment was implemented according to product instructions of Invitrogen Co.\nSpecifically, the spleen cells were isolated to prepare 1×10^6 cells/100 μl of single cells, followed by staining live/dead cells using fixable viability dye (Invitrogen, eFluor™780, 65-0865-14), and then blocking the same using anti-CD16/32 (Invitrogen, 14-0161). Following this, the above product was stained using anti-CD11b (Invitrogen, M1/70) and anti-F4/80 (Invitrogen, BM8). The stained cells were subjected to measurement of a ratio of CD11b^+ F4/80^+ cells as a marker for macrophage cells in live cells isolated through flow cytometry.\nFrom the result of measuring a ratio of CD11b^+ F4/80^+ cells as a marker for macrophage cells, it was confirmed that sham is 0.355±0.08%, CIA+Veh is 1.854±0.41%, CIA+YKL-05-099 10 mg/kg is 1.043±0.30%, CIA+YKL-05-099 20 mg/kg is 0.975±0.12%, respectively. Using unpaid parametric Welch's corrected t-test (two-tailed), p-value was indicated. With regard to statistically significant levels, p-value is 0.05 or less, wherein significance was represented by *p<0.05, **p<0.01 and ***p<0.001. CIA+Veh vs sham p-value is 0.0009, CIA+YKL-05-099 20 mg/kg vs CIA+Veh p-value is 0.0057, CIA+YKL-05-099 10 mg/kg vs sham p-value is 0.0019, CIA+YKL-05-099 20 mg/kg vs sham p-value is 0.0002, and CIA+YKL-05-099 10 mg/kg vs CIA+Veh p-value is 0.0076."}, "SIA mice [2]": {"test_system": "SIA mice", "assay": "Edema of paws and joints / paw thickness in SIA mice", "assay_type": "in vivo", "description": "In the present invention, “SIA” is used for an animal model suffering from rheumatoid arthritis and means “serum transfer arthritis.”\n(§1) In the examples of the present invention, efficacies of the composition of the present invention were investigated by establishing animal models CIA or SIA with animal diseases similar to rheumatoid arthritis of the human body. Specifically, 100 μl of 250 μg or 500 μg of the compound YKL-05-099 (CAS No.: 1936529-65-5) shown in FIG. 1 was intraperitoneally (i.p.) administered to a mouse weighed 25 g (that is, 10 mg or 20 mg per 1 kg) once a day.\n(§2) After i.p. administration of YKL-05-099 in an amount of 10 mg/kg or 20 mg/kg to mice having rheumatoid arthritis once a day, improvement of edema in the paws was investigated. For definite measurement and comparison, the most swollen portion of the paw was measured in multiple times, and collected numerical values of paw thickness were recorded and compared. Disease-free mice without administration of antigens were used as a negative control.\n(§3) FIG. 4 illustrates measured results of the paw thickness of CIA mice while FIG. 5 illustrates measured results of the paw thickness of SIA mice, respectively."}, "CIA mice [3]": {"test_system": "CIA mice", "assay": "Edema of paws and joints / paw thickness in CIA mice", "assay_type": "in vivo", "description": "In the present invention, “CIA” is used for an animal model suffering from rheumatoid arthritis and means “collagen-induced arthritis.”\nas §1, §2, §3"}, "SIA mice [4]": {"test_system": "SIA mice", "assay": "Rheumatoid arthritis clinical score in SIA mice", "assay_type": "in vivo", "settings": "10 mg/kg or 20 mg/kg, score 0-4 per paw, four paws combined, FIG. 7", "description": "as §1\n(§4) With regard to rheumatoid arthritis animal models CIA and SIA, respectively, rheumatoid arthritis clinical score was investigated. Disease-free mice without administration of antigen were used as a negative control. The clinical scores were determined depending on significance as follows: 0 (no symptom); 1 (slight edema on the soles or toes); 2 (significant edema throughout the soles and toes); 3 (significant to serious edema throughout the paw); 4 (serious edema and distortion throughout the paw), and then, the results for four paws were combined. FIG. 6 illustrates the results for CIA mice, and FIG. 7 illustrates the results for SIA mice, respectively."}, "CD4+ Foxp3+ cells (Treg)": {"test_system": "CD4+ Foxp3+ cells (Treg)", "assay": "Treg cell level in spleen cells of CIA mice by flow cytometry", "assay_type": "in vivo", "settings": "for ratio of CD4+ Foxp3+ cells as a marker for Treg: spleen live cells, CIA+Veh 12.24±0.34%, sham 10.725±0.53%", "description": "After i.p. administration of YKL-05-099 in an amount of 10 mg/kg or 20 mg/kg to the rheumatoid arthritis model CIA mice once a day, spleen cells were isolated at a time of sacrificing the mice to investigate Treg cell levels. Immune cell assay was performed through flow cytometry, and the experiment was implemented according to product instructions of Invitrogen Co. Specifically, the spleen cells were isolated to prepare 1×10^6 cells/100 μl of single cells, followed by staining live/dead cells using fixable viability dye (Invitrogen, eFluor™780, 65-0865-14), and then blocking the same using anti-CD16/32 (Invitrogen, 14-0161). Following this, the above product was stained using anti-CD4 (Invitrogen, RM4-5, mice) and anti-Foxp3 (Invitrogen, FJK-16s, mice). The stained cells were subjected to measurement of a ratio of CD4^+ Foxp3^+ cells as a marker for Treg in live cells isolated through flow cytometry.\nFIGS. 12A and 12B illustrate the above measured results. From the results of measuring a ratio of CD4^+ Foxp3^+ cells as a marker for Treg, it was confirmed that sham (disease-free mice) is 10.725±0.53%, CIA+Veh is 12.24±0.34%, CIA+YKL-05-099 10 mg/kg is 14.2±1.28%, CIA+YKL-05-099 20 mg/kg is 14.98±1.16%, respectively. Using unpaid parametric Welch's corrected t-test (two-tailed), p-value was indicated. With regard to statistically significant levels, p-value is 0.05 or less, wherein significance was represented by *p<0.05, **p<0.01 and ***p<0.001. Sham vs CIA+Veh p-value is 0.0045, CIA+YKL-05-099 10 mg/kg vs CIA+Veh p-value is 0.0119, CIA+YKL-05-099 20 mg/kg vs CIA+Veh p-value is 0.0046, CIA+YKL-05-099 10 mg/kg vs sham p-value is 0.0005, and CIA_YKL-05-099 20 mg/kg vs sham p-value is 0.0004."}, "[5]": {"test_system": "TNF-α, IL-6, IFN-γ, IL-17a", "assay": "Inflammatory cytokines in peripheral blood by ELISA, SIA mice", "assay_type": "in vivo", "settings": "ELISA at time of sacrifice, FIG. 11", "description": "as §1\n(§5) After administering YKL-05-099 to the rheumatoid arthritis animal model, essential inflammatory cytokines to induce rheumatoid arthritis such as TNF-α and IL-6, the representative immunoreactive cytokine of TH1 such as IFN-γ, and the representative immunoreactive cytokine of TH17 such as 1L-17a within peripheral blood at a time of sacrificing the mouse were subjected to analysis through enzyme linked immunosorbent assay (ELISA). Specifically, cytokine analysis was implemented using ELISA kit products according to instructions of Invitrogen Co., wherein the used product serial numbers are anti-IFN-γ (88-7314), anti-TNF-α (88-7324), anti-IL-17a (88-7371) and anti-IL-6 (88-7064). Disease-free mice without administration of antigens were used as a negative control. […] FIG. 10 illustrates measured results of cytokines in CIA mice while FIG. 11 illustrates measured results of cytokines in SIA mice, respectively."}, "CIA mice [6]": {"test_system": "CIA mice", "assay": "Bone loss around paw joint (micro CT) in CIA mice", "assay_type": "in vivo", "settings": "bone amount in the paw joint, FIG. 9", "description": "FIG. 9 is photographs taken through micro CT and graphs showing effects of inhibiting reduction of bone loss around the joints in the embodiments of the present invention.\nas §1"}, "[7]": {"test_system": "TNF-α, IL-6, IFN-γ, IL-17a", "assay": "Inflammatory cytokines in peripheral blood by ELISA, CIA mice", "assay_type": "in vivo", "settings": "ELISA at time of sacrifice, FIG. 10", "description": "as §1, §5"}, "[8]": {"test_system": "spleen and the lymph nodes", "assay": "Expansion of spleen and lymph tissues (inguinal and mesenteric lymph nodes)", "assay_type": "in vivo, mice", "settings": "compared to the control, FIG. 8", "description": "as §1, with “day. […] Disease-free mice without administration of antigens were used as a negative control, and the compared results are shown in FIG. 8.” for “day.”"}, "CIA mice [9]": {"test_system": "CIA mice", "assay": "Rheumatoid arthritis clinical score in CIA mice", "assay_type": "in vivo", "settings": "10 mg/kg or 20 mg/kg, score 0-4 per paw, four paws combined, FIG. 6", "description": "as §1, §4"}},
  "data": [
    {"smiles": "COc1ccc(N2C(=O)N(c3c(C)cccc3Cl)Cc3cnc(Nc4ccc(C5CCN(C)CC5)cc4OC)nc32)nc1", "note": "[YKL-05-099]", "values": [
      {"measurement": "ratio of macrophage cells compared to CIA+Veh", "setting": "[1]; 10 mg/kg and 20 mg/kg", "result": "statistically significant decrease"},
      {"measurement": "ratio of CD11b+ F4/80+ cells as a marker for macrophage cells", "setting": "[1]; 10 mg/kg i.p. once a day, p vs Veh 0.0076", "result": "1.043±0.30", "unit": "%"},
      {"measurement": "ratio of CD11b+ F4/80+ cells as a marker for macrophage cells", "setting": "[1]; 20 mg/kg i.p. once a day, p vs Veh 0.0057", "result": "0.975±0.12", "unit": "%"},
      {"measurement": "edema of the paws and around the joints (visually observed)", "setting": "SIA mice [2]; 10 mg/kg or 20 mg/kg i.p. once a day, compared to the control, FIG. 3", "result": "remarkably improved"},
      {"measurement": "paw thickness", "setting": "SIA mice [2]; vs vehicle administered group, FIG. 5", "result": "remarkably thinner"},
      {"measurement": "edema of the paws and around the joints (visually observed)", "setting": "CIA mice [3]; 10 mg/kg or 20 mg/kg i.p. once a day, compared to the control, FIG. 2", "result": "remarkably improved"},
      {"measurement": "paw thickness", "setting": "CIA mice [3]; vs vehicle administered group, FIG. 4", "result": "remarkably thinner"},
      {"measurement": "rheumatoid arthritis clinical scores", "setting": "SIA mice [4]", "result": "significantly reduced"},
      {"measurement": "ratio of Treg cells compared to CIA+Veh", "setting": "CD4+ Foxp3+ cells (Treg); 10 mg/kg and 20 mg/kg", "result": "statistically significant increase"},
      {"measurement": "ratio of CD4+ Foxp3+ cells as a marker for Treg", "setting": "CD4+ Foxp3+ cells (Treg); 10 mg/kg i.p. once a day, p vs Veh 0.0119", "result": "14.2±1.28", "unit": "%"},
      {"measurement": "ratio of CD4+ Foxp3+ cells as a marker for Treg", "setting": "CD4+ Foxp3+ cells (Treg); 20 mg/kg i.p. once a day, p vs Veh 0.0046", "result": "14.98±1.16", "unit": "%"},
      {"measurement": "inflammatory cytokines (TNF-α, IL-6, IFN-γ, IL-17a) within peripheral blood", "setting": "[5]", "result": "greatly suppressed"},
      {"measurement": "bone loss in paw joint", "setting": "CIA mice [6]", "result": "significantly inhibited"},
      {"measurement": "inflammatory cytokines (TNF-α, IL-6, IFN-γ, IL-17a) within peripheral blood", "setting": "[7]", "result": "greatly suppressed"},
      {"measurement": "expansion of the spleen and the lymph nodes", "setting": "[8]", "result": "greatly suppressed"},
      {"measurement": "rheumatoid arthritis clinical scores", "setting": "CIA mice [9]", "result": "significantly reduced"}
    ]}
  ]
}
